Experimental data as given in PubChem BioAssay AID504481 (NMMLSC, 2011).
Active and inactive are the calls of the source.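 The calls were made as follows: active = fold change below 0.65 in a panel strain, matching the primary screen cutoff; inactive = the rest.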

Columns and labels:
Test in all cases: GFP reporter expression in transducer deletion yeast, mechanism study for yeast TOR pathway modulator project, S. cerevisiae, transducer mutant strains, GFP-tagged proteins (AID 504481);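 also: 1 = DMSO wells as ratio of mean channel GFP fluorescence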
Conditions in all cases: S. cerevisiae transducer mutants, GFP-fusion expression, flow cytometry, 3 h
YCL025C = test system: YCL025C
YCR005C = test system: YCR005C
YKL103C = test system: YKL103C
YNL142W = test system: YNL142W
YBR084C-A = test system: YBR084C-A
BY4741 = test system: BY4741

Compound	fold change (YCL025C)	fold change (YCR005C)	fold change (YKL103C)	fold change (YNL142W)	fold change (YBR084C-A)	fold change (BY4741)
O=C1ON=C(c2ccccc2)/C1=C\c1ccco1	1 (inactive)	1.28 (inactive)	1.95	1.13 (inactive)	0.921 (inactive)	0.924 (inactive)
O=[N+]([O-])c1cc(S(=O)(=O)C(F)(F)F)ccc1Sc1nc2ccccc2s1	1.09 (inactive)	1.09 (inactive)	2.03	1.02 (inactive)	1.03 (inactive)	1.03 (inactive)
COc1ccc([N+](=O)[O-])c(S(=O)(=O)c2ccccc2)n1	1.08 (inactive)	0.91 (inactive)	1.86	0.958 (inactive)	0.944 (inactive)	0.935 (inactive)
Cc1ccc(C(=O)NNC(=S)NC(=O)COc2ccccc2)cc1	1 (inactive)	1.34 (inactive)	1.93	1.08 (inactive)	1.19 (inactive)	1.28 (inactive)
O=C(NC(=S)NNC(=O)c1cnccn1)c1ccc(F)cc1	1.02 (inactive)	0.816 (inactive)	1.54	1.23 (inactive)	0.875 (inactive)	1.1 (inactive)
Cc1ccc(C(c2cc(Cl)c3cccnc3c2O)N2CCN(C)CC2)cc1 (stereo not drawn)	1.06 (inactive)	0.889 (inactive)	1.8	1.03 (inactive)	1.03 (inactive)	0.978 (inactive)
Cc1ccc(S(=O)(=O)c2ncccc2[N+](=O)[O-])cc1	0.853 (inactive)	0.87 (inactive)	1.33 (inactive)	0.701 (inactive)	0.924 (inactive)	1 (inactive)
COc1ccc(C(=O)NNC(=S)NC(=O)/C=C/c2cccs2)cc1	1.38 (inactive)	1.07 (inactive)	1.51	1.13 (inactive)	1.23 (inactive)	1.03 (inactive)
N/C(Cc1ccc(Cl)cc1)=N\OC(=O)c1cccc2ccccc12	0.919 (inactive)	2.47	1.44 (inactive)	1.22 (inactive)	0.913 (inactive)	1.27 (inactive)
O=C(OCC(=O)N1CCN(C(=O)c2ccco2)CC1)c1cc(-c2cccc(Br)c2)nc2ccccc12	1.14 (inactive)	1.29 (inactive)	1.33 (inactive)	1.05 (inactive)	0.779 (inactive)	0.913 (inactive)
O=C1ON=C(c2ccccc2)/C1=C/c1ccco1	0.866 (inactive)	1.4 (inactive)	1.37 (inactive)	1.09 (inactive)	1.02 (inactive)	1.32 (inactive)
CSC1=NS(=O)(=O)c2c(C)nn(C)c2S1	0.969 (inactive)	0.841 (inactive)	1.3 (inactive)	0.896 (inactive)	0.857 (inactive)	0.902 (inactive)
CCCCC(=O)NNC(=S)NC(=O)c1ccc(C)cc1	1.12 (inactive)	1.02 (inactive)	2.75	1.25 (inactive)	1.27 (inactive)	1.66 (inactive)
